From the supplement of paper PMC10307832

Columns and labels:
Assay in all cases: relative viability (nuclei count vs DMSO), 5 days (fraction); higher = more cells survive
[1] = compound: C=CCc1cccc(/C=N/NC(=O)CN2CCN(Cc3ccccc3)CC2)c1O [PAC-1] + CC(=O)c1c(C)c2cnc(Nc3ccc(N4CCNCC4)cn3)nc2n(C2CCCC2)c1=O [Palbociclib] (partner 0.5 µM)
Method in brief: (§1)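 Lung cancer cell lines in 1536-well plates got either a single drug or a fixed anchor-drug dose together with five library-drug doses (not always all listed) in √10 steps, by pin tool, on the day after seeding. Nuclei were counted after 5 days, and relative viability is the treated-to-vehicle ratio of nuclei counts. Values are medians of duplicate plates.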

[2] = compound: C=CC(=O)N1CCC[C@@H](n2nc(-c3ccc(Oc4ccccc4)cc3)c3c(N)ncnc32)C1 [Ibrutinib] + Cc1nc(Nc2ncc(C(=O)Nc3c(C)cccc3Cl)s2)cc(N2CCN(CCO)CC2)n1 [Dasatinib] (partner 0.075 µM)
Method in brief: as §1

[3] = compound: C=CCc1cccc(/C=N/NC(=O)CN2CCN(Cc3ccccc3)CC2)c1O [PAC-1] + C[C@@H](Oc1cc(-c2cnn(C3CCNCC3)c2)cnc1N)c1c(Cl)ccc(F)c1Cl [Crizotinib] (partner 1 µM)
Method in brief: as §1

[4] = compound: C=CC(=O)N1CCC[C@@H](n2nc(-c3ccc(Oc4ccccc4)cc3)c3c(N)ncnc32)C1 [Ibrutinib] + CS(=O)(=O)N1CCN(Cc2cc3nc(-c4cccc5[nH]ncc45)nc(N4CCOCC4)c3s2)CC1 [Pictilisib] (partner 1 µM)
Method in brief: as §1

SK-MES-1
relative viability ([1]; first compound 0.02 µM): 0.336
relative viability ([1]; first compound 0.06325 µM): 0.311
relative viability ([1]; first compound 0.2 µM): 0.315
relative viability ([1]; first compound 2 µM): 0.308
relative viability ([2]; first compound 0.005 µM): 0.281
relative viability ([2]; first compound 0.01581 µM): 0.211
relative viability ([2]; first compound 0.05 µM): 0.194
relative viability ([2]; first compound 0.1581 µM): 0.38
relative viability ([2]; first compound 0.5 µM): 0.178
relative viability ([3]; first compound 0.02 µM): 1.05
relative viability ([3]; first compound 0.06325 µM): 1.01
relative viability ([3]; first compound 0.2 µM): 1.01
relative viability ([3]; first compound 2 µM): 1.01
relative viability ([4]; first compound 0.005 µM): 0.307
relative viability ([4]; first compound 0.01581 µM): 0.274
relative viability ([4]; first compound 0.05 µM): 0.254
relative viability ([4]; first compound 0.1581 µM): 0.342
relative viability ([4]; first compound 0.5 µM): 0.198
